Columns and labels:
Assay in all cases: REVEAL binding assay
Details in all cases: score as percentage of the signal generated by the positive control peptide
[1] = test system: HLA-B35
Description: (§5) The REVEAL™ binding assay determined the ability of each candidate peptide to bind to one or more MHC class I alleles and stabilizing the MHC-peptide complex. […] Detection is based on the presence or absence of the native conformation of the MHC-peptide complex. Each peptide is given a score relative to the positive control peptide, which is a known T cell epitope.

[2] = biological target: HLA-A2 (Homo sapiens, UniProt P04439, D140Y/D185E/D98H/E176V/E277Q/G131W/G231S/I119V/I121R/I166T/I218V/N151K/N90K/P208A/P217A/Q86G/Q94H/R138H/R169H)
Procedure: (§1) Binding properties to HLA for the ninemers listed in table 6 were tested for the following HLA-classes:
(§2) HLA-A1, HLA-A2, HLA-A3, HLA-A11, HLA-A24, HLA-A29, HLA-B7, HLA-B8, HLA-B14, HLA-B15, HLA-B27, HLA-B35, HLA-B40.
(§3) The peptides were synthesized as a Prospector PEPscreen®: Custom Peptide Library. […] Quality control by MALDI-TOF Mass Spectrometry was carried out on 100% of samples.
(§4) The REVEAL™ binding assay determined the ability of each candidate peptide to bind to one or more MHC class I alleles and stabilizing the MHC-peptide complex. By comparing the binding to that of high and intermediate affinity T cell epitopes, the most likely immunogenic peptides in a protein sequence can be identified. Detection is based on the presence or absence of the native conformation of the MHC-peptide complex. Each peptide is given a score relative to the positive control peptide, which is a known T cell epitope.

[3] = biological target: HLA-B7 (Homo sapiens, UniProt P01889)
HLA-B7, sequence (P61769 21-119): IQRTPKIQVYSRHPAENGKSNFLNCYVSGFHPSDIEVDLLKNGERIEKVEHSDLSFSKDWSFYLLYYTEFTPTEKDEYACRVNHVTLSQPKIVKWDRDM
HLA-B7, sequence (P01889 25-299): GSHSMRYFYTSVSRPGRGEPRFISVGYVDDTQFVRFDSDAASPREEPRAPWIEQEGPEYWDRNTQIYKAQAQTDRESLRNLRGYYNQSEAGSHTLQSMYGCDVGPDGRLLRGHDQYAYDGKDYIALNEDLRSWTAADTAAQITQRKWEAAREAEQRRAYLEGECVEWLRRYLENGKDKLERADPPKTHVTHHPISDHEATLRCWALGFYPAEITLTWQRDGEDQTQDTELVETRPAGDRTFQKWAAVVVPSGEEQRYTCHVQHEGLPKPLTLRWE
Procedure: as §1, §2, §3, §4

[4] = biological target: HLA-A3 (Homo sapiens, UniProt P04439)
HLA-A3, sequence (P04439 25-299): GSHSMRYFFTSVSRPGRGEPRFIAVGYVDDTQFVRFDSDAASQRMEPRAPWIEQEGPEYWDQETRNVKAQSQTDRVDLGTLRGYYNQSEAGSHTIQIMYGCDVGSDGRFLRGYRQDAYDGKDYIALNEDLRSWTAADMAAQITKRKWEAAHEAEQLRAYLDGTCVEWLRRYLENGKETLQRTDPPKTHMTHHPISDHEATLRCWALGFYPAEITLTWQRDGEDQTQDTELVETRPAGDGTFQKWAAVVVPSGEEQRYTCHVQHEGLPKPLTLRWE
HLA-A3, sequence (P61769 21-119, further chain): as the sequence (P61769 21-119) above
Procedure: as §1, §2, §3, §4

[5] = biological target: HLA-B27 (Homo sapiens, UniProt P01889, D138H/D201E/E176V/E204Q/G107R/H137Y/K202T/N104T/N87E/Q56L/Q94K/R106L/R155S/R180L/S101D/S121N/S48T/Y140D/Y33H/Y91C)
Procedure: as §1, §2, §3, §4

[6] = biological target: HLA-A11 (Homo sapiens, UniProt P04439, A114D/F33Y/S129P)
Procedure: as §1, §2, §3, §4

[7] = test system: HLA-A29
Description: as §5

[8] = test system: HLA-B8
Description: as §5

[9] = test system: HLA-B40
In short: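 Peptide–MHC class I complex stability assay on nonamers. Output: quantitative % relative to high-affinity control epitope, with putative pass/fail designation.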

[10] = test system: HLA-A1
Description: as §5

[11] = test system: HLA-A24
Description: as §5

[12] = test system: HLA-B15
[13] = test system: HLA-B14

Sequence	REVEAL binding score, HLA-type B35 [1] [%]	REVEAL binding score, HLA-type A2 [2] [%]	REVEAL binding score, HLA-type B7 [3] [%]	REVEAL binding score, HLA-type A3 [4] [%]	REVEAL binding score, HLA-type B27 [5] [%]	REVEAL binding score, HLA-type A11 [6] [%]	REVEAL binding score, HLA-type A29 [7] [%]	REVEAL binding score, HLA-type B8 [8] [%]	REVEAL binding score, HLA-type B40 [9] [%]	REVEAL binding score, HLA-type A1 [10] [%]	REVEAL binding score, HLA-type A24 [11] [%]	REVEAL binding score, HLA-type B15 [12] [%]	REVEAL binding score, HLA-type B14 [13] [%]
NIPGSTYSL	4.71	5.71	4.80	3.98	2.29	3.20	31.99	7.66	37.01	8.41	8.50	4.46	0.46
RVIETLTSG	1.90	9.82	0.50	2.23	2.32	3.25	15.52	11.83	32.30	11.61	0.96	37.99	0.11
IGGNYLIPR	2.54	7.04	20.49	2.88	0.82	3.57	14.85	14.23	25.44	17.90	0.89	15.02	0.32
LPAVGAPIG	1.06	5.60	8.12	3.02	0.49	4.95	25.32	15.87	39.31	20.57	0.61	10.10	0.12
YATGNLPGC	4.52	22.46	0.76	3.67	2.44	2.16	18.82	9.51	77.49	8.10	1.20	5.09	0.41
IVGGVYLLP	2.68	6.78	24.16	1.88	0.68	3.10	12.38	11.48	19.83	22.11	0.30	15.00	1.65
ATGNLPGCS	7.00	4.62	1.12	3.64	2.56	2.54	22.84	10.73	90.48	7.13	0.64	3.81	0.87
TFSIYLIVS	2.48	2.02	1.28	0.91	1.49	2.89	8.58	9.52	23.23	9.93	0.60	8.63	0.37
VARALAHGV	0.27	5.85	31.59	2.77	0.62	3.47	29.43	14.31	44.29	16.10	0.32	11.26	0.17
GITFSIYLI	9.27	7.27	2.07	1.42	3.29	4.88	10.42	8.94	68.30	9.61	3.05	8.15	0.63
QIIGGNYLI	8.99	73.54	52.04	6.30	0.91	4.06	13.60	10.61	83.60	21.63	12.60	29.59	0.40
